Reference: patent US20250198442A1, “GAMMA POLYGLUTAMATED PEMETREXED AND USES THEREOF” (L.E.A.F. HOLDINGS GROUP LLC, priority 2020, published 2025)

Experiments:
[1] = test system: NCI H2342 non-small cell lung cancer (NSCLC), adenocarcinoma subtype; assay: CellTiter-Glo cell viability dose response, NCI H2342; type: cell-based, human; conditions: H2342, 48 hours of treatment, rank among test articles
Experimental: (§1) The CTG assay uses luciferase as a readout.
(§2) Luciferase luminescence were recorded for each well.

[2] = test system: HT-29 (colon cancer); assay: CellTiter-Glo cell viability dose response, HT-29; type: cell-based, human; conditions: HT-29, 48 hours, rank among test articles
Experimental: as §1, §2

[3] = test system: AML12 liver cells; assay: Toxicity to AML12 liver cells; type: cell-based; conditions: all doses studied (16 to 128 nM), 48 hours
Excerpt: (§3) Methodologies used for cell line AML12 (non-cancerous liver cells) and CCD841 (non-cancerous colon epithelial cells) are similar to the methods used for cancer cells.

[4] = test system: CCD841 colon epithelium cells; assay: Toxicity to CCD841 colon epithelium cells; type: cell-based; conditions: 16 nM, 32 nM, 64 nM and 128 nM, 48 hours
Excerpt: as §3

Compound	potency as measured by IC50 [1]	potency (cell viability) [2]	reduction in the AML12 liver cell counts [3]	decrease in the number of CCD841 colon epithelium cells [4]
Nc1nc(=O)c2c(CCc3ccc(C(=O)N[C@@H](CCC(=O)N[C@@H](CCC(=O)N[C@@H](CCC(=O)N[C@@H](CCC(=O)N[C@@H](CCC(=O)N[C@@H](CCC(=O)O)C(=O)O)C(=O)O)C(=O)O)C(=O)O)C(=O)O)C(=O)O)cc3)c[nH]c2[nH]1 [gG6, pemetrexed L-gamma hexaglutamate]	least potent	least potent		
Nc1nc2[nH]cc(CCc3ccc(C(=O)N[C@@H](CCC(=O)O)C(=O)O)cc3)c2c(=O)[nH]1 [pemetrexed]			approximately 40%	≥ 50%
